In patent US8921351B2, “Liquid crystalline phytosterol-glycerine complex for enhanced bioavailability and water dispersal” (Brandeis University, priority 2012, dated 2014):

Tests used:
[1] = Saturation uptake of glycerine into melted non-esterified phytosterols; assay type: physicochemical
Protocol: An experiment was conducted to determine the “saturation uptake” level during the chemical interaction between phytosterols and glycerine, The saturation uptake level can be either an adsorption phenomenon or a solubility phenomenon. First, the saturation level of glycerine uptake into non-esterified phytosterols was determined Mixed phytosterols that had been purified from soybean oil, and containing principally beta-sitosterol, campesterol and stigmasterol (CoroWise® FG-50), were heated, […] Increasing levels of glycerine (approximately 5, 10, 20 and 25 parts by weight) could be adsorbed or dissolved in 100 parts by weight of heated and melted free phytosterols. The evidence for adsorption (or solubility) was that a single melted phase of liquid was visible in heated glass test tubes containing these mixtures, whereas when larger amounts of glycerine were added, the glycerine formed a separate clear phase beneath the melted phytosterols. Upon cooling and solidification of the phytosterol samples containing between approximately 5 and 25 parts by weight of glycerine, the resulting solids were dry to the touch with no apparent free glycerine liquid. […]

[2] = cited from earlier work
[3] = Mutual solubility of phytosterols with glycerine or propylene glycol at 150° C.; assay type: physicochemical
From the text: It was discovered that a substantial amount of glycerine can be combined with phytosterol to form a complex (up to approximately 20% glycerine based on the weight of phytosterol). This was surprising given that glycerine is a low molecular weight hydrophilic substance whereas phytosterols (e.g., beta-sitosterol, campesterol and stigmasterol) are highly hydrophobic substances. […] The question arose, why can 20% glycerine dissolve into melted phytosterols when a small amount of phytosterol will not dissolve into glycerine. […] For example, equal weight percentages of these ingredients dissolve easily in one another.

## OCC(O)CO [glycerine]
[1]
  saturation level of glycerine relative to phytosterols: ~20 % by weight
[1]; phytosterols melted at approximately 135° C.
  solubility limit (saturation level) of glycerine in melted phytosterols: about 25 g per 100 g phytosterols

## CCCCCO [n-amyl alcohol]
[2]
  solubility limit in water: 2.7 g per 100 g water

## CC(O)CO (stereo not shown) [propylene glycol]
[3]
  miscibility of propylene glycol and phytosterols: substantially miscible
